# Experimental data as given in patent publication US20240269139A1, “COMPOUNDS FOR TARGETED PROTEIN DEGRADATION OF KINASES” (DANA-FARBER CANCER INSTITUTE, INC., priority 2020, published 2024).
# Like-named read-outs stand apart in the source and are kept apart here.
# What was measured:
# Type in all cases: cell-based
# [1] = molecular target: T1, protein kinases (human kinome) (Homo sapiens, UniProt O14965)
# T1 sequence (O14965 1-403): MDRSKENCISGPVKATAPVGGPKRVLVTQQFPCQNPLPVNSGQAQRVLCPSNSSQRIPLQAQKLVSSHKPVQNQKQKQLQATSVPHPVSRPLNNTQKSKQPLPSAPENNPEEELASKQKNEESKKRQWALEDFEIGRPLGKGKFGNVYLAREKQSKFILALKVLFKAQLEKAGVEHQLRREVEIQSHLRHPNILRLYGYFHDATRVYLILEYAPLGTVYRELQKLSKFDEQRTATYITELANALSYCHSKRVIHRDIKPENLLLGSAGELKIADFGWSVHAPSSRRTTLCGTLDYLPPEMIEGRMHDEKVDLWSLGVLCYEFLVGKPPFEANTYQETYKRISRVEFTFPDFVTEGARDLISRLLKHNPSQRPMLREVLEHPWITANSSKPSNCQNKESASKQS
# [2] = molecular target: protein kinases (human kinome) (Homo sapiens, UniProt P11802)
# Sequence of protein kinases (human kinome) (Homo sapiens, UniProt P11802) (P11802 whole entry): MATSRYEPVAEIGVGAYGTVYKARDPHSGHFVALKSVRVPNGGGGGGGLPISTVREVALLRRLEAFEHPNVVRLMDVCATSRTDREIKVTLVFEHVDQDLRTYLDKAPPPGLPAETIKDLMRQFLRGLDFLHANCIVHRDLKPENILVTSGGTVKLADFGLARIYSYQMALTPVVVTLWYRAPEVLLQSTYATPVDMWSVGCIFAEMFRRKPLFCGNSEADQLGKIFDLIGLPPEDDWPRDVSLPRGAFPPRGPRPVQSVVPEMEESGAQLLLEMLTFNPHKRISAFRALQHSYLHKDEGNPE
# [3] = molecular target: protein kinases (human kinome) (Homo sapiens, UniProt P53671); settings: for logFC LIMK2: LIMK2 (P53671), down; for logFC of LIMK2: LIMK2 P53671
# Sequence of protein kinases (human kinome) (Homo sapiens, UniProt P53671) (P53671 whole entry): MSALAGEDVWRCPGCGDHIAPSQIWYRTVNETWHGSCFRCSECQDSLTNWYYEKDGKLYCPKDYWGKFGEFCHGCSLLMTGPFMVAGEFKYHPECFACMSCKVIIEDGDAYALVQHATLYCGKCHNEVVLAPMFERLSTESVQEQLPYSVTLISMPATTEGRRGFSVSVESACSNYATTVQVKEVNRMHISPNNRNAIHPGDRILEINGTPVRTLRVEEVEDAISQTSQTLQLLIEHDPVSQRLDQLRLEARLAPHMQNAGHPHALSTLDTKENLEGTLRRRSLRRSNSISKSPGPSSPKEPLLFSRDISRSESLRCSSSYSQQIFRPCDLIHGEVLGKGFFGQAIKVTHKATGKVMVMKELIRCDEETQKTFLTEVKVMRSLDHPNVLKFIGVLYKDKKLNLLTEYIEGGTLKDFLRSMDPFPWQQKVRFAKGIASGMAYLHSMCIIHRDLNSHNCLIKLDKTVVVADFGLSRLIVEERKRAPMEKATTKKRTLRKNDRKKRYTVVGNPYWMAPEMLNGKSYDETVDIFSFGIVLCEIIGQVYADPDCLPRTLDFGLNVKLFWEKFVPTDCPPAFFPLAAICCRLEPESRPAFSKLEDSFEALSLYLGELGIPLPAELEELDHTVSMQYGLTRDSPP
# [4] = molecular target: protein kinases (human kinome) (Homo sapiens, UniProt Q9H0K1); settings: for logFC of SIK2: Accession Q9H0K1; for logFC SIK2 (Q9H0K1): direction of change down; for logFC SIK2: SIK2 (Q9H0K1), down
# Sequence of protein kinases (human kinome) (Homo sapiens, UniProt Q9H0K1) (Q9H0K1 whole entry): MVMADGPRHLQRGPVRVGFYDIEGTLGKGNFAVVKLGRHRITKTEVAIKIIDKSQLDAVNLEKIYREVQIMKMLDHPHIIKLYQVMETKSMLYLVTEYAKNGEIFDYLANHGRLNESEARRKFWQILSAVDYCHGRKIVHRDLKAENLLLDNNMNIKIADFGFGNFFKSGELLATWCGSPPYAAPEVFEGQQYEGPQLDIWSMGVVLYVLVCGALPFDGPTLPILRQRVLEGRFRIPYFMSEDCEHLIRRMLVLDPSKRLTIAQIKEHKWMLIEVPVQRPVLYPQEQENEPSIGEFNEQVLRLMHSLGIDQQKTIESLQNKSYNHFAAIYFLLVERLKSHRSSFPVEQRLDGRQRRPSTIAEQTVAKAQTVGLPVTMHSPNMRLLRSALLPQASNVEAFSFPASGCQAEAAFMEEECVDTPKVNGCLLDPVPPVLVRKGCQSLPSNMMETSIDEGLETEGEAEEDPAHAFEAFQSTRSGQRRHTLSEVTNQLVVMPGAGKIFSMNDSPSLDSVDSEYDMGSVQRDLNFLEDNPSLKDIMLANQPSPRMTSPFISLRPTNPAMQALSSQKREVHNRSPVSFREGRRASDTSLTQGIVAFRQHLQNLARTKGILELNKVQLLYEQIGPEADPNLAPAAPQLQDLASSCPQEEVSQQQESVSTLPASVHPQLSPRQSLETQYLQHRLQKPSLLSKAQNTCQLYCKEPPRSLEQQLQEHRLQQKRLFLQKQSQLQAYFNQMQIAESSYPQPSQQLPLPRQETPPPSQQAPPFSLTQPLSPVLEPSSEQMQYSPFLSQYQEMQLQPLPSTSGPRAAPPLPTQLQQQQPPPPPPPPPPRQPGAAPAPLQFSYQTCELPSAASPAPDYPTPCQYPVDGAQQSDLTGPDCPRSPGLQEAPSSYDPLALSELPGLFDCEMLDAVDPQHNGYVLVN
# [5] = molecular target: T2, protein kinases (human kinome) (Homo sapiens, UniProt O75385); settings: for logFC: ULK1 (O75385) protein abundance, degrader vs DMSO, down; for logFC ULK1: ULK1 O75385
# T2 sequence (O75385 1-1050): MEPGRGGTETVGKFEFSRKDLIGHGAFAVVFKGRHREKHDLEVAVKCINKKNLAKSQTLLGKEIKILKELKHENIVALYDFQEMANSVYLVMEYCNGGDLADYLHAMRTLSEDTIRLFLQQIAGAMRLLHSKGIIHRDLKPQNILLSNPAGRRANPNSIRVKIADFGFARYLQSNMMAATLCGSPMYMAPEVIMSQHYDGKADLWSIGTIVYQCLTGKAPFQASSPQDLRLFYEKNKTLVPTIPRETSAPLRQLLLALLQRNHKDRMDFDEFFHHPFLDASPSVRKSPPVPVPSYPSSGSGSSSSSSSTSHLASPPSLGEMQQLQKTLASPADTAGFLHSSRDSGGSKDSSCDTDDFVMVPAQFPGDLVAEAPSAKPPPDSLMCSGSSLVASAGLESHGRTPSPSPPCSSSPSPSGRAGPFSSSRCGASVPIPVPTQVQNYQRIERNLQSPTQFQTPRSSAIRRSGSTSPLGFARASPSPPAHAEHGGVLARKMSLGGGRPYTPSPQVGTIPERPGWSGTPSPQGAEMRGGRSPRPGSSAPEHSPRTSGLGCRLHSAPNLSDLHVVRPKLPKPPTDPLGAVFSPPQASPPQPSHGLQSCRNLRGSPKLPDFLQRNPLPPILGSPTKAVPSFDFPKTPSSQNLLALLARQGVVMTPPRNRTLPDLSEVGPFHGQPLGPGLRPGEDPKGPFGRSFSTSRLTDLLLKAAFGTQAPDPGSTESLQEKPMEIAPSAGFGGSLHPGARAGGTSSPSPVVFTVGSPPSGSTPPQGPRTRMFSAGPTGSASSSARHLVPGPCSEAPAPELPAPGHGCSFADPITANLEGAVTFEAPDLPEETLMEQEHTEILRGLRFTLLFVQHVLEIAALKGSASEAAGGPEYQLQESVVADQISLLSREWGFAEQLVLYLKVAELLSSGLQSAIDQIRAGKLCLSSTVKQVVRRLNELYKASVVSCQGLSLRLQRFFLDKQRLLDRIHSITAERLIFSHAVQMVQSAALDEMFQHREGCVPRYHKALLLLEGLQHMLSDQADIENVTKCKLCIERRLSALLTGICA
compound,measurement,setting,value
CNC(=O)c1ccccc1Nc1cc(Nc2ccc(N3CCN(CCOCCOCCNC(=O)CNc4cccc5c4C(=O)N(C4CCC(=O)NC4=O)C5=O)CC3)cc2OC)ncc1C(F)(F)F (stereo not drawn) [MFH.5.103.1],logFC AURKA (O14965),[1]; experiment wp076,−0.9893
same,logFC AURKA (O14965),[1]; experiment wp078,−0.9893
CC(=O)c1c(C)c2cnc(Nc3ccc(N4CCN(CCOCCOCCOCCNC(=O)COc5cccc6c5C(=O)N(C5CCC(=O)NC5=O)C6=O)CC4)cn3)nc2n(C2CCCC2)c1=O (stereo not drawn) [BSJ.03.123],logFC CDK4 (P11802),[2]; experiment wp084,−0.9496
Nc1ncnc2c1c(-c1ccc(Oc3ccccc3)cc1)nn2[C@H]1CC[C@H](N2CCN(CCOCCNC(=O)CNc3cccc4c3C(=O)N(C3CCC(=O)NC3=O)C4=O)CC2)CC1 (stereo partly drawn) [SB1.G.181],logFC AURKA (O14965),[1]; experiment wp071,−0.3684
C[C@@H]1C[C@@H](O)c2ncnc(N3CCN(C(=O)[C@H](CNCCCCCCCCCCc4cccc5c4C(=O)N(C4CCC(=O)NC4=O)C5=O)c4ccc(Cl)cc4)CC3)c21 (stereo partly drawn) [INY.03.041.01],logFC CDK4 (P11802),[2]; experiment wp118,−0.4019
Cc1cnc(Nc2ccc(N3CCN(CCOCCOCCNC(=O)COc4cccc5c4C(=O)N(C4CCC(=O)NC4=O)C5=O)CC3)cc2)nc1Nc1cccc(S(=O)(=O)NC(C)(C)C)c1 (stereo not drawn) [JWG.118],logFC AURKA (O14965),[1]; experiment wp071,−0.8861
Cc1cc(Nc2ncc(Br)c(Nc3cccc(F)c3C(N)=O)n2)ccc1S(=O)(=O)NCCOCCOCCOCCOCCNc1cccc2c1C(=O)N(C1CCC(=O)NC1=O)C2=O (stereo not drawn) [TMX.02.174],logFC AURKA (O14965),[1]; experiment wp146,−2.865
CC(C)(C)c1nc(-c2cccc(NS(=O)(=O)c3c(F)cccc3F)c2F)c(-c2ccnc(NCCOCCNC(=O)CCOCCOCCNc3cccc4c3C(=O)N(C3CCC(=O)NC3=O)C4=O)n2)s1 (stereo not drawn) [DD.03.106],logFC CDK4 (P11802),[2]; experiment wp047,−0.9277
same,logFC CDK4 (P11802),[2]; experiment wp137,−0.8885
same,logFC CDK4 (P11802),"[2]; experiment wp147, 1 uM",−0.6961
same,logFC CDK4 (P11802),"[2]; experiment wp147, 2 uM",−0.9835
same,logFC CDK4 (P11802),"[2]; experiment wp147, 4 uM",−0.726
same,logFC LIMK2,[3]; experiment wp137,−1.026
same,logFC of LIMK2,[3]; experiment wp137,−1.026
same,logFC AURKA (O14965),"[1]; experiment wp147, 4 uM",−0.3302
Cc1cnc(Nc2ccc(N3CCN(CCCCCCC(=O)N[C@H](C(=O)N4C[C@H](O)C[C@H]4C(=O)N[C@@H](C)c4ccc(-c5scnc5C)cc4)C(C)(C)C)CC3)cc2)nc1Nc1cccc(S(=O)(=O)NC(C)(C)C)c1 [JWG.123],logFC of SIK2,[4]; experiment wp195,−0.6143
same,logFC SIK2 (Q9H0K1),[4]; experiment wp195,−0.6143
Cc1ccc(NC(=O)c2cccc(C(F)(F)F)c2)cc1N1Cc2cnc(Nc3ccc(N4CCN(CCCCC(=O)N[C@H](C(=O)N5C[C@H](O)C[C@H]5C(=O)N[C@@H](C)c5ccc(-c6scnc6C)cc5)C(C)(C)C)CC4)nc3)nc2N(C)C1=O [DB1113],logFC CDK4 (P11802),[2]; experiment wp168,−0.4373
same,logFC of SIK2,[4]; experiment wp168,−0.7296
same,logFC SIK2 (Q9H0K1),[4]; experiment wp168,−0.7296
same,logFC,[5],−0.352
same,logFC ULK1,[5]; experiment wp168,−0.352
CCc1cnn2c(N(Cc3ccc(N)nc3)C(=O)CCOCCOCCOCCNC(=O)CNc3cccc4c3C(=O)N(C3CCC(=O)NC3=O)C4=O)cc(N3CCCC[C@H]3CCO)nc12 (stereo partly drawn) [MFH.5.115.2],logFC CDK4 (P11802),[2]; experiment wp076,−0.7246
same,logFC AURKA (O14965),[1]; experiment wp076,−0.5912
CC(C)S(=O)(=O)c1ccccc1Nc1nc(Nc2ccc(N3CCN(CCOCCNC(=O)CNc4ccc5c(c4)C(=O)N(C4CCC(=O)NC4=O)C5=O)CC3)cc2)ncc1Cl (stereo not drawn) [SK.3.93],logFC CDK4 (P11802),[2]; experiment wp016,−1.305
same,logFC LIMK2,[3]; experiment wp016,−1.01
same,logFC of LIMK2,[3]; experiment wp016,−1.01
same,logFC AURKA (O14965),[1]; experiment wp016,−1.823
NC(=O)c1c(F)cccc1Nc1nc(Nc2ccc(S(=O)(=O)NCCOCCOCCOCCOCCNc3cccc4c3C(=O)N(C3CCC(=O)NC3=O)C4=O)cc2)ncc1Br (stereo not drawn) [TMX.02.138],logFC AURKA (O14965),[1]; experiment wp146,−2.933
Cc1ccc(NC(=O)c2cccc(C(F)(F)F)c2)cc1N1Cc2cnc(Nc3ccc(N4CCN(CCCOc5cccc6c5C(=O)N(C5CCC(=O)NC5=O)C6=O)CC4)nc3)nc2N(C)C1=O (stereo not drawn) [DB0662],logFC CDK4 (P11802),[2]; experiment wp168,−0.9883
same,logFC of SIK2,[4]; experiment wp168,−0.777
same,logFC SIK2 (Q9H0K1),[4]; experiment wp168,−0.777
same,logFC,[5],−0.3582
same,logFC ULK1,[5]; experiment wp168,−0.3582
Cn1c(=O)c(-c2c(Cl)cccc2Cl)cc2cnc(Nc3ccc(OCCNC(=O)CCCCCCNC(=O)COc4cccc5c4C(=O)N(C4CCC(=O)NC4=O)C5=O)cc3)nc21 (stereo not drawn) [SB1.G.192.1],logFC of SIK2,[4]; experiment wp071,−1.036
same,logFC of SIK2,[4]; experiment wp081,−1.196
same,logFC of SIK2,[4]; experiment wp131,−0.9342
same,logFC SIK2,[4]; experiment wp071,−1.036
same,logFC SIK2 (Q9H0K1),[4]; experiment wp081,−1.196
same,logFC SIK2 (Q9H0K1),[4]; experiment wp131,−0.9342
same,logFC LIMK2,[3]; experiment wp081,−0.371
same,logFC LIMK2,[3]; experiment wp131,−0.5544
same,logFC of LIMK2,[3]; experiment wp081,−0.371
same,logFC of LIMK2,[3]; experiment wp131,−0.5544
same,logFC AURKA (O14965),[1]; experiment wp071,−0.8111
same,logFC AURKA (O14965),[1]; experiment wp081,−0.7299
same,logFC AURKA (O14965),[1]; experiment wp131,−0.6267
Cc1ccc(NC(=O)c2cccc(C(F)(F)F)c2)cc1N1Cc2cnc(Nc3ccc(N4CCN(CCCCCCOc5cccc6c5C(=O)N(C5CCC(=O)NC5=O)C6=O)CC4)nc3)nc2N(C)C1=O (stereo not drawn) [DB0663],logFC CDK4 (P11802),[2]; experiment wp045,−0.6823
same,logFC of SIK2,[4]; experiment wp045,−0.4765
same,logFC SIK2,[4]; experiment wp045,−0.4765
same,logFC LIMK2,[3]; experiment wp045,−1.367
same,logFC of LIMK2,[3]; experiment wp045,−1.367
Nc1ncc(-c2ccc(S(=O)(=O)N(CCCNC(=O)CCOCCOCCOCCOCCOCCNc3cccc4c3C(=O)N(C3CCC(=O)NC3=O)C4=O)C3CC3)cc2)cc1-c1ccc2c(c1)CCNC2=O (stereo not drawn) [WH.10417.099],logFC LIMK2,[3]; experiment wp103,−0.5747
same,logFC LIMK2,[3]; experiment wp107,−0.3744
same,logFC of LIMK2,[3]; experiment wp103,−0.5747
same,logFC of LIMK2,[3]; experiment wp107,−0.3744
Cc1ncsc1-c1ccc([C@H](C)NC(=O)[C@@H]2C[C@@H](O)CN2C(=O)[C@@H](NC(=O)CCCCCN2CCc3cc(Nc4ncc(C5CC5)c(NCCCNC(=O)C5CCC5)n4)ccc3C2)C(C)(C)C)cc1 [BSJ.05.026],logFC of SIK2,[4]; experiment wp195,−0.9472
same,logFC SIK2 (Q9H0K1),[4]; experiment wp195,−0.9472
same,logFC,[5],−0.4424
same,logFC ULK1,[5]; experiment wp195,−0.4424
O=C1CCC(N2C(=O)c3cccc(NCCCCCCCCN4CCC(NC(=O)c5[nH]ncc5NC(=O)c5c(Cl)cccc5Cl)CC4)c3C2=O)C(=O)N1 (stereo not drawn) [MFH.5.126.1],logFC CDK4 (P11802),[2]; experiment wp076,−0.608
same,logFC AURKA (O14965),[1]; experiment wp076,−0.9474
CN(C)C(=O)c1cc2cnc(Nc3ccc(N4CCN(CCCCNC(=O)COc5cccc6c5C(=O)N(C5CCC(=O)NC5=O)C6=O)CC4)cn3)nc2n1C1CCCC1 (stereo not drawn) [BSJ.04.132],logFC CDK4 (P11802),[2]; experiment wp084,−0.9046
